# According to patent publication US10662161B2, “Pyrimidines and uses thereof” (Regents of the University of Minnesota, priority 2017, dated 2020):
# Values joined by “and” are separate entries in the source; they are usually repeats but may differ in a detail not shown here. Equal values may be shown once. “Also recorded” adds a separate entry of the source. Where a name gives a salt, the structure may show the parent alone.
# Experiments:
# Type in all cases: cell-based
# [1] = target: T1, human TLR8 (Homo sapiens, UniProt Q9NR97); assay: Human TLR8-specific reporter gene assay (NF-κB induction, sAP) in HEK293 cells; conditions: for TLR8-agonistic activity (in words) / EC50: primary screen; for TLR8-agonistic activity (in words): reporter gene assay; for EC50: HEK293 hTLR8 reporter cells, read-out: EC50, TLR8 agonistic activity (hTLR8-specific NF-κB induction)
# T1 construct: expressed in transfected cells; host or cells: HEK293
# T1 sequence (Q9NR97 27-1041): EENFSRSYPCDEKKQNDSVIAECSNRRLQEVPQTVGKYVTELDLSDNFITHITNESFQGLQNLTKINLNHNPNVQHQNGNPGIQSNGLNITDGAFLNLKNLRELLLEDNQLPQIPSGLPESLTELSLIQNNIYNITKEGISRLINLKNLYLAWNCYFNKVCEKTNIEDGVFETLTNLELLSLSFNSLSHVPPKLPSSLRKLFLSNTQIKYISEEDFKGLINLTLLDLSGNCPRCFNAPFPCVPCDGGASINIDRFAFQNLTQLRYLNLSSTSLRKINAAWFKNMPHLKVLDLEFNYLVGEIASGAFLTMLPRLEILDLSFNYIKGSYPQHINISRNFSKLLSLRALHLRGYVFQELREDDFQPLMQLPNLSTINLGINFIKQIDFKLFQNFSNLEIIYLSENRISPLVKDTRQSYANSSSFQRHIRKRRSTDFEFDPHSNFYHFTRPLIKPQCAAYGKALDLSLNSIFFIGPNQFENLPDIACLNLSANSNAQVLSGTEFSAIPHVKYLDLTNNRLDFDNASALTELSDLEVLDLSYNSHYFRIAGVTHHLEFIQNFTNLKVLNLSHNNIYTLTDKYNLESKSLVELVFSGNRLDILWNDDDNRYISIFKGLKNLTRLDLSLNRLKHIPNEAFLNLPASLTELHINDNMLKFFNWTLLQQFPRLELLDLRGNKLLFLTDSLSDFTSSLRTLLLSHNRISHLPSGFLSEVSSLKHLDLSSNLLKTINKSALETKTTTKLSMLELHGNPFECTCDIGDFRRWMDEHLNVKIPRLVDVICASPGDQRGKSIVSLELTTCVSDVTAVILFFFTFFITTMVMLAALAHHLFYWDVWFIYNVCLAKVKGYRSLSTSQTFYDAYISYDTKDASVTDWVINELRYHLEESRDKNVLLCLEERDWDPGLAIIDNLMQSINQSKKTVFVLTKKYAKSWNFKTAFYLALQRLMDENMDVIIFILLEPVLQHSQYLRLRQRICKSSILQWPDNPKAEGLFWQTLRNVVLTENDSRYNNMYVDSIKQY
# Text: Human TLR8-Specific Reporter Gene Assays (NF-κB Induction), and TLR-2/-3/-4/-5/-7/-9 Counter-Screens:
# The induction of NF-κB was quantified using human TLR-2/-3/-4/-5/-7/-8/-9-specific, rapid-throughput, liquid handler-assisted reporter gene assays as previously described by us.^31,25, 32,33 HEK293 cells stably co-transfected with the appropriate hTLR and secreted alkaline phosphatase (sAP) were maintained in HEK-Blue™ Selection medium. Stable expression of secreted alkaline phosphatase (sAP) under control of NF-κB/AP-1 promoters is inducible by appropriate TLR agonists, and extracellular sAP in the supernatant is proportional to NF-κB induction. Reporter cells were incubated at a density of ˜10^5 cells/ml in a volume of 80 μl/well, in 384-well, flat-bottomed, cell culture-treated microtiter plates in the presence of graded concentrations of stimuli. sAP was assayed spectrophotometrically using an alkaline phosphatase-specific chromogen (present in HEK-detection medium as supplied by InvivoGen) at 620 nm.
# [2] = test system: CD80 expression in the monocytes (human whole blood); assay: Flow-cytometric immunostimulation: CD80 upregulation in human whole blood; conditions: 16 h, CD80-PE-Cy7 MFI
# Experimental: Flow-Cytometric Immunostimulation Experiments:
# Cell surface marker upregulation was determined by flow cytometry using protocols published by us previously. Briefly, heparin-anticoagulated whole blood samples were obtained by venipuncture from healthy human volunteers with informed consent and as per guidelines approved by the University of Minnesota Human Subjects Experimentation Committee. Serial dilutions of selected compounds were performed using a Bio-Tek Precision 2000 XS liquid handler in sterile 96-well polypropylene plates, to which were added 100 μL aliquots of anticoagulated whole human blood. The plates were incubated at 37° C. for 16 h. Negative (DMSO) controls were included in each experiment. The following fluorochrome-conjugated antibodies were used: CD14-FITC, CD40-APC, CD80-PE-Cy7, CD86-V450 (Becton-Dickinson Biosciences, San Jose, Calif.). Following incubation, 2.5 μg of each antibody was added to wells with a liquid handler, and incubated at 4° C. in the dark for 60 min. Following staining, erythrocytes were lysed and leukocytes fixed by mixing 200 μL of the samples in 800 μL pre-warmed Whole Blood Lyse/Fix Buffer (Becton-Dickinson Biosciences, San Jose, Calif.) in 96 deep-well plates. After washing the cells twice at 300 g for 10 minutes in RPMI, the cells were transferred to a 96-well plate. […]
# [3] = test system: human peripheral blood mononuclear cells (hPBMC); assay: Multiplexed immunoassays for cytokine and chemokine induction in human PBMCs; conditions: 41-analyte multiplexed immunoassay
# Experimental: Immunoassays for Cytokines.
# Fresh human peripheral blood mononuclear cells (hPBMC) were isolated from human blood obtained by venipuncture in Cell Preparation Tubes (CPT, Beckton-Dickinson) with informed consent and as per guidelines approved by the University of Minnesota Human Subjects Experimentation Committee. Aliquots of PBMCs (10^5 cells in 100 µL/well) were stimulated for 16 h with graded concentrations of test compounds. Supernatants were isolated by centrifugation, and were assayed in duplicates using analyte-specific multiplexed cytokine/chemokine bead array assays (HCYTMAG-60K-PX29 MILLIPLEX MAP Human Cytokine/Chemokine Magnetic Bead Panel, EMD Millipore, Billerica, Mass.) as reported by us previously.^19 The following analytes were quantified: sCD40L, VEGF, TNF-β, TNF-α. TGF-α, RANTES, PDGF-AB/BB, PDGF-AA, MIP-1β, MIP-1α, MDC (CCL22), MCP-3, MCP-1, IP-10, IL-17A, IL-15, IL-13, IL-12 (p70), IL-12 (p40). IL-10, IL-9, IL-8, IL-7, IL-6, IL-5, IL-4, IL-3, IL-2, IL-1 ra, IL-1β, IL-1α, IFN-γ, IFN-α2, GRO, GM-CSF, G-CSF, fractalkine, Fit-3 ligand, FGF-2, eotaxin, EGF.
Structure (SMILES),TLR8-agonistic activity (in words) [1],other results
"CCCC#Cc1cc(C)nc(N)n1 [Compound 4i, 4-Methyl-6-(pent-1-yn-1-yl)pyrimidin-2-amine]",inactive,
"CCCCNc1nc(N)nc(-c2ccccc2)c1CCCCCN [Compound 32c, 5-(5-Aminopentyl)-N^4-butyl-6-phenylpyrimidine-2,4-diamine dihydrochloride]",,EC50 [1]: 2350 nM
"CCCCNc1cc(C)nc(N)n1 [Compound 15, N^4-Butyl-6-methylpyrimidine-2,4-diamine]",,EC50 [1]: 22000 nM; fold less active than 4b (TLR8 EC50) ([1]; relative to 4b): ca. fourteen-fold less active
"CCCCNc1nc(N)nc(-c2ccccc2)c1I [Compound 29, N^4-Butyl-5-iodo-6-phenylpyrimidine-2,4-diamine]",inactive,
"CCCCNc1nc(N)nc(C)c1Br [Compound 6b, 5-Bromo-N^4-butyl-6-methylpyrimidine-2,4-diamine]",substantial losses in potency,
"CCCCNc1nc(N)ncc1I [Compound 17, N^4-Butyl-5-iodopyrimidine-2,4-diamine]",entirely without measurable TLR8-agonistic activity,
"CCCCNc1nc(N)nc(C)c1CCCCCN.Cl.Cl [Compound 27c, 5-(5-Aminopentyl)-MN-butyl-6-methylpyrimidine-2,4-diamine dihydrochloride]",appeared to plateau,
"CCCCNc1nc(N)nc(C)c1Cl [Compound 6a, N^4-Butyl-5-chloro-6-methylpyrimidine-2,4-diamine]",substantial losses in potency,
"CCCCCc1cc(C)nc(N)n1 [Compound 4j, 4-Methyl-6-pentylpyrimidin-2-amine]",inactive,
"CCCCNc1ccnc(N)n1 [Compound 16, N^4-Butylpyrimidine-2,4-diamine]",,EC50 [1]: 73200 nM
"CCCCNc1nc(N)nc(C)c1CCCN.Cl.Cl [Compound 27a, 5-(3-Aminopropyl)-N^4-butyl-6-methylpyrimidine-2,4-diamine dihydrochloride]",,EC50 [1]: 2310 nM; fold increase in TLR8 potency relative to that of 4b (22 μM) ([1]; reference printed as 4b (22 μM)): increased nearly ten-fold
"CCCCOc1nc(N)nc(C)c1I [Compound 4g, 4-Butoxy-5-iodo-6-methylpyrimidin-2-amine]",inactive,
"CCCCSc1nc(N)nc(C)c1I [Compound 4h, 4-(Butylthio)-5-iodo-6-methylpyrimidin-2-amine]",inactive,
"CCCCNc1nc(N)nc(C)c1I [Compound 4b, N^4-Butyl-5-iodo-6-methylpyrimidine-2,4-diamine]",,TLR8 specificity/selectivity (in words) ([1]; reporter gene assays with TLR-2/-3/-4/-5/-7/-9 counter-screens): pure TLR8 agonist; also recorded: bona fide TLR8-specific agonist; activity in upregulating CD80 [2]: 1.5 μg/mL and 5 μM
"CCCCCc1nc(N)nc(C)c1I [Compound 4k, 5-iodo-4-methyl-6-pentylpyrimidin-2-amine]",inactive,
"CCCCNc1nc(N)nc(C)c1F [Compound 6c, N^4-Butyl-5-fluoro-6-methylpyrimidine-2,4-diamine]",substantial losses in potency,
"CCCCN(Cc1ccccc1)c1nc(N)nc(C)c1I [Compound 4f, N^4-Benzyl-N^4-butyl-5-iodo-6-methylpyrimidine-2,4-diamine]",abrogated activity,
"CCCCN(C)c1nc(N)nc(C)c1I [Compound 4e, N^4-Butyl-5-iodo-N^4,6-dimethylpyrimidine-2,4-diamine]",abrogated activity,
"CCCCNc1nc(N)nc(-c2ccccc2)c1CCCCN.Cl.Cl [Compound 32b, 5-(4-Aminobutyl)-N^4-butyl-6-phenylpyrimidine-2,4-diamine dihydrochloride]",,EC50 [1]: 2700 nM; cytokine and chemokine induction (in words) [3]: significantly weaker
"CCCCNc1nc(N)nc(C)c1Cc1ccccc1 [Compound 24, 5-Benzyl-MN-butyl-6-methylpyrimidine-2,4-diamine]","diminution of activity, exhibiting greatly attenuated area-under-the curve",
